Experiments:
[1] = tested on: WiDr cells (human colon cancer cells); assay: in vitro antitumor activity test, WiDr cells, XTT colorimetry; assay type: cell-based; conditions: cultured 72 hours
Method in brief: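 Human colon cancer cells in MEM/10% FBS were seeded 3×10^4 cells/ml and allowed to adhere for 24 h, then exposed to compounds prepared at 2.0×10^−9 to 2.0×10^−4 M in RPMI 1640 for 72 h at 37° C, 5% CO2. Growth was read by XTT colorimetry and GI50 (μM) calculated.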

[2] = tested on: MCF-7 cells (human breast cancer cells); assay: antitumor activity against breast cancer cells, cell counting; assay type: cell-based; conditions: MCF7; MCF-7 human breast cancer cells, cultured 72 hours, cell counter
Experimental: MCF-7 cells (human breast cancer cells) subcultured in a culture medium composed of a MEM medium added with 10% fetal bovine serum, 25 mM HEPES and 0.1 mg/ml kanamycin under the conditions of 37° C. and 5% carbon dioxide gas were made into single floating cells by treating with trypsin/EDTA, and a single cell suspension of 4×10^4 cells per 1 ml was prepared using the MEM medium (added with 10% fetal bovine serum, 25 mM HEPES and 0.1 mg/ml kanamycin). After dissolving the test substances (Compound 2 and Compound 7) in DMSO, they were diluted with the MEM medium (added with 10% fetal bovine serum, 25 mM HEPES and 0.1 mg/ml kanamycin) and prepared so that the concentrations were 6.4×10^−8 to 2.0×10^−5 M.
0.1 ml of the cell suspension was placed into each well of a 96-well microplate, cultured for 24 hours to allow the cells to adhere to the microplate, then 0.1 ml of the sample solutions were added, and cultured for 72 hours at 37° C. in 5% carbon dioxide gas.
Afterwards, the cells in each well were made single floating cells by treating with trypsin/EDTA, and the number of cells was counted using a cell counter to obtain the growth inhibition rate at various sample concentrations and calculate the concentrations at which growth was inhibited by 50% (GI50 values [μM]).

[3] = tested on: A549 cells (human lung cancer cells); assay: in vitro antitumor activity test, A549 cells, XTT colorimetry; assay type: cell-based; conditions: cultured 72 hours
Method in brief: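 Cells seeded at 2×10^4 cells/ml in MEM + 10% FBS, 25 mM HEPES, kanamycin, allowed to adhere 24 h, then exposed to compounds (DMSO stocks diluted in RPMI 1640; prepared at 2.0×10^−9 to 2.0×10^−4 M) for 72 h at 37 °C, 5% CO2. Growth inhibition read by XTT colorimetry; GI50 (μM) calculated.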

human lung cancer A549 = assay: in vivo antitumor activity, nude mice transplanted with human lung cancer A549; design: species or system BALB/c-nu/nu mice; conditions: 400 mg/kg intraperitoneally daily day 0 to day 13 (12 times), tumor volume at day 14
Experimental: Tumor tissue fragments of human lung cancer A549 (3 mm×3 mm×3 mm) were transplanted subcutaneously into the chests of six-week-old female BALB/c-nu/nu mice, and sample administration started when the tumor volume reached at least approximately 100 mm^3 (day 0). Compound 2 and Compound 7 were suspended in a 1% hydroxypropylcellulose (HPC [L]) solution using an agate mortar. 400 mg/kg of Compound 2 was orally administered daily from day 0 to day 13 (excluding day 3 and day 10, a total of 12 times). 400 mg/kg of Compound 7 was intraperitoneally administered daily from day 0 to day 13 (excluding day 4 and day 11, a total of 12 times). Tumor diameters were measured to calculate tumor volume (½×long diameter×short diameter×short diameter), and the tumor volume after 14 days (at day 14) from the start of sample administration was divided by the tumor volume at the start of the administration to calculate relative tumor growth rate. The percentage of the relative tumor growth rate of the control group with respect to the relative tumor growth rate of the group administered with Compound 2 or Compound 7 was taken as T/C (%).

[4] = tested on: P388 cells (mouse leukemia cells); assay: in vitro antitumor activity test, P388 cells, XTT colorimetry; assay type: cell-based; conditions: cultured 72 hours
Method in brief: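 Cells from DBA/2 mouse ascites, in RPMI 1640 with 10% FBS and 25 mM HEPES, seeded from a 4×10^4 cells/ml suspension. Equal volume added of compound solutions prepared at 2.0×10^−9 to 2.0×10^−4 M (pre-mixing). After 72 h at 37° C, 5% CO2, growth read by XTT; GI50 (μM) is the concentration giving 50% growth inhibition.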

[5] = tested on: PC-3 cells (human prostate cancer cells); assay: in vitro antitumor activity test, PC-3 cells, XTT colorimetry; assay type: cell-based; conditions: PC-3 human prostate cancer cells, cultured 72 hours
Method in brief: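 PC-3 human prostate cancer cells, seeded at 2×10^4 cells/ml and allowed to adhere for 24 h, were exposed 72 h at 37° C, 5% CO2 to compound diluted in RPMI 1640 with 10% FBS to 2.0×10^−9 to 2.0×10^−4 M (pre-addition solutions). Growth was measured by XTT colorimetry and GI50 (μM) calculated.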

[6] = tested on: B16F10 cells (mouse melanoma [malignant melanoma] cells); assay: in vitro antitumor activity test, B16F10 cells, XTT colorimetry; assay type: cell-based; conditions: B16-F10, cultured 72 hours
Method in brief: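 B16F10 mouse melanoma cells were seeded from a 1×10^4 cells/ml suspension and allowed to adhere for 24 h. Compounds in DMSO were diluted in RPMI 1640 with 10% FBS to 2.0×10^−9 to 2.0×10^−4 M and incubated 72 h at 37° C, 5% CO2. XTT colorimetry gave GI50 (μM).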

GI50 [1] [nM] | GI50 [3] [nM] | GI50 [4] [nM] | GI50 [5] [nM] | GI50 [6] [nM] | SMILES | GI50 [2] [nM] | T/C (human lung cancer A549) [%]
250 | 130 | 120 | 140 | 340 | CCc1nc2c(N3CCN(N=O)CC3)nc(SCc3ccc(OC)cc3)nc2n1C [Compound 7, 8-ethyl-2-(4-methoxybenzylsulfanyl)-9-methyl-6-(4-nitrosopiperazin-1-yl)-9H-purine] | 130 | 55.4
< 40 | < 40 | < 40 | < 40 | < 40 | CNc1nc(SCc2ccc(OC)c(C#N)c2)nc2c1ncn2C [Compound 72, 2-(3-cyano-4-methoxybenzylsulfanyl)-6-methylamino-9-methyl-9H-purine] | – | –
1240 | 1890 | 1250 | 850 | 3910 | CCc1ccc(CSc2nc(N3CCOCC3)c3nc(CC)n(C)c3n2)cc1 [Compound 12, 8-ethyl-2-(4-ethylbenzylsulfanyl)-9-methyl-6-morpholino-9H-purine] | – | –
940 | 500 | 490 | 1500 | 1310 | CCOc1ccc(CSc2nc(N3C=COCC3)c3ncn(CC)c3n2)cc1[N+](=O)[O-] [Compound 155, 6-(2,3-dihydro-[1,4]oxadin-4-yl)-9-ethyl-2-(3-nitro-4-ethoxybenzylsulfanyl)-9H-purine] | – | –
1190 | 1250 | 950 | 640 | 1610 | CCc1nc2c(N3CCN(N=O)C(C)C3)nc(SCc3ccc(OC)cc3)nc2n1C (stereo in doubt) [Compound 22, 8-ethyl-2-(4-methoxybenzylsulfanyl)-9-methyl-6-[(3S)-3-methyl-4-nitrosopiperazin-1-yl]-9H-purine] | – | –
510 | 760 | 360 | 460 | 1290 | CCOc1ccc(CSc2nc(N3CCOCC3)c3nc(CC)n(C)c3n2)cc1 [Compound 17, 2-(4-ethoxybenzylsulfanyl)-8-ethyl-9-methyl-6-morpholino-9H-purine] | – | –
1160 | 2280 | 870 | 820 | 1800 | CCc1nc2c(N3CCOCC3)nc(SCc3ccc(OC)cc3OCc3ccccc3)nc2n1C [Compound 15, 2-(2-benzyloxy-4-methoxybenzylsulfanyl)-8-ethyl-9-methyl-6-morpholino-9H-purine] | – | –
4850 | 370 | 260 | 470 | 410 | COc1ccc(CSc2nc(-n3cccc3)c3ncn(C)c3n2)cc1N [Compound 141, 2-(3-amino-4-methoxybenzylsulfanyl)-9-methyl-6-(1-pyrrolyl)-9H-purine] | – | –
210 | 140 | 110 | 300 | 300 | CCN(C)c1nc(SCc2ccc(OC)c(F)c2)nc2c1ncn2C [Compound 82, 6-(N-ethyl-N-methylamino)-2-(3-fluoro-4-methoxybenzylsulfanyl)-9-methyl-9H-purine] | – | –
350 | 470 | 490 | 530 | 1380 | COc1ccc(CSc2nc(N3C=COCC3)c3ncn(C)c3n2)cc1[N+](=O)[O-] [Compound 149, 6-(2,3-dihydro-[1,4]oxadin-4-yl)-2-(4-methoxy-3-nitrobenzylsulfanyl)-9-methyl-9H-purine] | – | –
1150 | 80 | 50 | 100 | 190 | COc1ccc(CSc2nc(N3CC=CC3)c3ncn(C)c3n2)cc1[N+](=O)[O-] [Compound 142, 2-(4-methoxy-3-nitrobenzylsulfanyl)-9-methyl-6-(3-pyrrolin-1-yl)-9H-purine] | – | –
< 40 | < 40 | < 40 | < 40 | < 40 | CNc1nc(SCc2ccc(OC)c(F)c2)nc2c1ncn2C [Compound 73, 2-(3-fluoro-4-methoxybenzylsulfanyl)-6-methylamino-9-methyl-9H-purine] | – | –
300 | 140 | 90 | 120 | 290 | CCc1nc2c(N3CCOCC3)nc(SCc3ccc(OC)c(N)c3)nc2n1CC [Compound 97, 2-(3-amino-4-methoxybenzylsulfanyl)-8,9-diethyl-6-morpholino-9H-purine] | – | –
< 40 | < 40 | < 40 | < 40 | < 40 | COc1ccc(CSc2nc(N3C=COCC3)c3ncn(C)c3n2)cc1C#N [Compound 153, 2-(3-cyano-4-methoxybenzylsulfanyl)-6-(2,3-dihydro-[1,4]oxadin-4-yl)-9-methyl-9H-purine] | – | –
310 | 480 | 380 | 450 | 380 | CCNc1nc(SCc2ccc(OC)cc2)nc2c1ncn2C [Compound 64, 6-ethylamino-2-(4-methoxybenzylsulfanyl)-9-methyl-9H-purine] | – | –
310 | 70 | 30 | 50 | 100 | CCOc1ccc(CSc2nc(NC)c3ncn(C)c3n2)cc1N [Compound 107, 2-(3-amino-4-ethoxybenzylsulfanyl)-9-methyl-6-methylamino-9H-purine] | – | –
4100 | 3300 | 260 | 3200 | 980 | C=Cc1nc(SCc2ccc(OC)cc2)nc2c1ncn2C [Compound 165, 2-(4-methoxybenzylsulfanyl)-9-methyl-6-vinyl-9H-purine] | – | –
140 | 100 | 70 | 100 | 380 | CCc1nc2c(N3CCOCC3)nc(SCc3ccc(OC)c(C#N)c3)nc2n1C [Compound 51, 2-(3-cyano-4-methoxybenzylsulfanyl)-8-ethyl-9-methyl-6-morpholino-9H-purine] | – | –
140 | 220 | 100 | 140 | 340 | COc1ccc(CSc2nc(N(C)C)c3ncn(C)c3n2)cc1 [Compound 21, 6-dimethylamino-2-(4-methoxybenzylsulfanyl)-9-methyl-9H-purine] | – | –
400 | 570 | 300 | 380 | 1170 | COc1ccc(CSc2nc(N3CCOCC3)c3ncn(C)c3n2)cc1 [Compound 9, 2-(4-methoxybenzylsulfanyl)-9-methyl-6-morpholino-9H-purine] | – | –

— patent US9132130B2, “Purine derivative and antitumor agent using same” (ZENYAKU KOGYO KABUSHIKI KAISHA, priority 2009, dated 2015)
